Tests used:
paw of the rats = test: Rat paw edema; type: in vivo, Sprague Dawley rats; conditions: for degree of edema in words: 2 hours after administration, rat paw; for degree of edema, 1 hour after administration / degree of edema, 2 hours after administration / degree of edema, Immediately after administration: 0.1 ml into rat paw
Description: (§1) To evaluate the degree of edema, each test compositions described above were injected into the paw of the rats. Specifically, male Sprague Dawley rats (6 weeks old) were purchased and used after one week of adaptation. The rats (body weight: 170˜200 g) were randomly selected and the thickness of the rat paw were measured with a caliper before the administration of the test compositions. In order to observe the edema, 0.1 ml of PBS and the various test compositions were administered to the paws of the rats. Measurements of the […] were performed by a caliper immediately before the injection, immediately after the injection, and 1 or 2 hours after the injection. In addition, when the thickness was measured, the skin lesion of the injection site was observed by photographing the sole of the paw (using a 4×4 cm scale).
The degree of edema was evaluated as 0 to 4 grades.

sole of the rat paws = test: Measurement of skin lesion (erythema) on rat paw; type: in vivo, Sprague Dawley rats; conditions: for skin lesion (erythema) in words: 2 hours after administration;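 as to grade of skin lesion (erythema), 1 hour after administration: grades − to ++++ mean no to extremely severe erythema versus before injection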;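 as to grade of skin lesion (erythema), 2 hours after administration: grades − to ++++ mean no to extremely severe erythema versus before injection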;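 as to grade of skin lesion (erythema), Immediately after administration: grades − to ++++ mean no to extremely severe erythema versus before injection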
Description: as §1
The grades of skin lesion were evaluated as 0 to 4 grades.

[1] = test system: tissues of the injected area (rat paw); test: H&E staining histological test (inflammation) of injected rat paw; type: in vivo, Sprague Dawley rats; conditions: for Inflammation (H&E), BA % (w/v) 1.0: bile acid single composition 1.0% (w/v), injected rat paw
Description: The tissues of the injected area were dissected, fixed with 10% formalin, and then the specimen was prepared and images were captured using an optical microscope. The degree of inflammation was evaluated as follows.

[2] = Formulation stability of PPC injectable preparations: property, transparency, particle size, pH; conditions: for bile acid/PPC molar ratio below which a substantially stable formulation did not occur: PPC 5.0%; for bile acid concentration at which stable injectable preparations can be made: based on PPC 5.0%
[3] = bile acid single composition 1.0% (w/v)
[4] = bile acid single composition 2.5% (w/v)
[5] = bile acid single composition 5.0% (w/v)
[6] = bile acid single composition 7.5% (w/v)

Row | grade of skin lesion (erythema), 1 hour after administration (sole of the rat paws; [3]) | grade of skin lesion (erythema), 2 hours after administration (sole of the rat paws; [3]) | grade of skin lesion (erythema), Immediately after administration (sole of the rat paws; [3]) | grade of skin lesion (erythema), 1 hour after administration (sole of the rat paws; [4]) | grade of skin lesion (erythema), 2 hours after administration (sole of the rat paws; [4]) | grade of skin lesion (erythema), Immediately after administration (sole of the rat paws; [4]) | grade of skin lesion (erythema), 1 hour after administration (sole of the rat paws; [5]) | grade of skin lesion (erythema), 2 hours after administration (sole of the rat paws; [5]) | SMILES | degree of edema, 1 hour after administration (paw of the rats; [3]) | degree of edema, 2 hours after administration (paw of the rats; [3]) | degree of edema, Immediately after administration (paw of the rats; [3]) | degree of edema, 1 hour after administration (paw of the rats; [4]) | degree of edema, 2 hours after administration (paw of the rats; [4]) | degree of edema, Immediately after administration (paw of the rats; [4]) | degree of edema, 1 hour after administration (paw of the rats; [5]) | degree of edema, 2 hours after administration (paw of the rats; [5]) | degree of edema, Immediately after administration (paw of the rats; [5]) | degree of edema, 1 hour after administration (paw of the rats; [6]) | degree of edema, 2 hours after administration (paw of the rats; [6]) | degree of edema, Immediately after administration (paw of the rats; [6]) | further results
1 | + | + | + | +++ | +++ | + | ++++ | ++++ | C[C@H](CCC(=O)O)[C@H]1CC[C@H]2[C@@H]3C[C@H](O)[C@@H]4C[C@H](O)CC[C@]4(C)[C@H]3CC[C@]12C [HDCA, (4R)-4-[(3R,5R,6S,8S,9S,10R,13R,14S,17R)-3,6-dihydroxy-10,13-dimethyl-2,3,4,5,6,7,8,9,11,12,14,15,16,17-tetradecahydro-1H-cyclopenta[a]phenanthren-17-yl]pentanoic acid] | ++ (moderate edema [++, (the degree of swelling was 20-40% compared to before the injection)]) | +++ (severe edema [+++, (the degree of swelling was 40-60% compared to before the injection)]) | ++ (moderate edema [++, (the degree of swelling was 20-40% compared to before the injection)]) | ++ (moderate edema [++, (the degree of swelling was 20-40% compared to before the injection)]) | +++ (severe edema [+++, (the degree of swelling was 40-60% compared to before the injection)]) | ++ (moderate edema [++, (the degree of swelling was 20-40% compared to before the injection)]) | ++++ (extremely severe edema [++++, (the degree of swelling was 60% or more compared to before the injection)]) | ++++ (extremely severe edema [++++, (the degree of swelling was 60% or more compared to before the injection)]) | ++ (moderate edema [++, (the degree of swelling was 20-40% compared to before the injection)]) | ++++ (extremely severe edema [++++, (the degree of swelling was 60% or more compared to before the injection)]) | ++++ (extremely severe edema [++++, (the degree of swelling was 60% or more compared to before the injection)]) | ++ (moderate edema [++, (the degree of swelling was 20-40% compared to before the injection)]) | degree of edema in words (paw of the rats; listed as HDCA 2.5%): “severe” and “extremely severe”; skin lesion (erythema) in words (sole of the rat paws; listed as HDCA 1.0%): Mild; skin lesion (erythema) in words (sole of the rat paws; listed as HDCA 2.5%): “severe” and “extremely severe”; grade of skin lesion (erythema), Immediately after administration (sole of the rat paws; [5]): +; grade of skin lesion (erythema), 1 hour after administration (sole of the rat paws; [6]): ++++; grade of skin lesion (erythema), 2 hours after administration (sole of the rat paws; [6]): ++++; grade of skin lesion (erythema), Immediately after administration (sole of the rat paws; [6]): ++; Inflammation (H&E), BA % (w/v) 1.0 [1]: +++; bile acid/PPC molar ratio below which a substantially stable formulation did not occur [2]: less than 0.95; bile acid concentration at which stable injectable preparations can be made [2]: ≥ 2.3%
2 | +++ | ++ | + | +++ | +++ | ++ | ++++ | ++++ | C[C@H](CCC(=O)NCCS(=O)(=O)O)[C@H]1CC[C@H]2C3CC[C@@H]4C[C@H](O)CC[C@]4(C)[C@H]3C[C@H](O)[C@]12C (stereo partly drawn) [TDCA, 2-[[(4R)-4-[(3R,5R,9S,10S,12S,13R,14S,17R)-3,12-dihydroxy-10,13-dimethyl-2,3,4,5,6,7,8,9,11,12,14,15,16,17-tetradecahydro-1H-cyclopenta[a]phenanthren-17-yl]pentanoyl]amino]ethanesulfonic acid] | +++ (severe edema [+++, (the degree of swelling was 40-60% compared to before the injection)]) | +++ (severe edema [+++, (the degree of swelling was 40-60% compared to before the injection)]) | ++ (moderate edema [++, (the degree of swelling was 20-40% compared to before the injection)]) | +++ (severe edema [+++, (the degree of swelling was 40-60% compared to before the injection)]) | +++ (severe edema [+++, (the degree of swelling was 40-60% compared to before the injection)]) | ++ (moderate edema [++, (the degree of swelling was 20-40% compared to before the injection)]) | ++++ (extremely severe edema [++++, (the degree of swelling was 60% or more compared to before the injection)]) | ++++ (extremely severe edema [++++, (the degree of swelling was 60% or more compared to before the injection)]) | ++ (moderate edema [++, (the degree of swelling was 20-40% compared to before the injection)]) | ++++ (extremely severe edema [++++, (the degree of swelling was 60% or more compared to before the injection)]) | ++++ (extremely severe edema [++++, (the degree of swelling was 60% or more compared to before the injection)]) | ++ (moderate edema [++, (the degree of swelling was 20-40% compared to before the injection)]) | degree of edema in words (paw of the rats; listed as TDCA 2.5%): “severe” and “extremely severe”; skin lesion (erythema) in words (sole of the rat paws; listed as TDCA 1.0%): Moderate; skin lesion (erythema) in words (sole of the rat paws; listed as TDCA 2.5%): “severe” and “extremely severe”; grade of skin lesion (erythema), Immediately after administration (sole of the rat paws; [5]): ++; grade of skin lesion (erythema), 1 hour after administration (sole of the rat paws; [6]): ++++; grade of skin lesion (erythema), 2 hours after administration (sole of the rat paws; [6]): ++++; grade of skin lesion (erythema), Immediately after administration (sole of the rat paws; [6]): ++; Inflammation (H&E), BA % (w/v) 1.0 [1]: ++; degree of inflammation (H&E) in words ([1]; rats sacrificed at 3 hours, injected paw): Moderate; bile acid/PPC molar ratio below which a substantially stable formulation did not occur [2]: less than 0.74; bile acid concentration at which stable injectable preparations can be made [2]: ≥ 2.3%
3 | ++ | ++ | + | ++ | +++ | ++ | ++++ | ++++ | C[C@H](CCC(=O)O)[C@H]1CC[C@H]2[C@@H]3[C@@H](O)C[C@@H]4C[C@H](O)CC[C@]4(C)[C@H]3CC[C@]12C [UDCA, (4R)-4-[(3R,5S,7S,8R,9S,10S,13R,14S,17R)-3,7-dihydroxy-10,13-dimethyl-2,3,4,5,6,7,8,9,11,12,14,15,16,17-tetradecahydro-1H-cyclopenta[a]phenanthren-17-yl]pentanoic acid] | ++ (moderate edema [++, (the degree of swelling was 20-40% compared to before the injection)]) | ++ (moderate edema [++, (the degree of swelling was 20-40% compared to before the injection)]) | ++ (moderate edema [++, (the degree of swelling was 20-40% compared to before the injection)]) | +++ (severe edema [+++, (the degree of swelling was 40-60% compared to before the injection)]) | ++++ (extremely severe edema [++++, (the degree of swelling was 60% or more compared to before the injection)]) | ++ (moderate edema [++, (the degree of swelling was 20-40% compared to before the injection)]) | ++++ (extremely severe edema [++++, (the degree of swelling was 60% or more compared to before the injection)]) | ++++ (extremely severe edema [++++, (the degree of swelling was 60% or more compared to before the injection)]) | ++ (moderate edema [++, (the degree of swelling was 20-40% compared to before the injection)]) | ++++ (extremely severe edema [++++, (the degree of swelling was 60% or more compared to before the injection)]) | ++++ (extremely severe edema [++++, (the degree of swelling was 60% or more compared to before the injection)]) | ++ (moderate edema [++, (the degree of swelling was 20-40% compared to before the injection)]) | degree of edema in words (paw of the rats; listed as UDCA 1.0%): moderate; degree of edema in words (paw of the rats; listed as UDCA 2.5%): “severe” and “extremely severe”; skin lesion (erythema) in words (sole of the rat paws; listed as UDCA 1.0%): Moderate; skin lesion (erythema) in words (sole of the rat paws; listed as UDCA 2.5%): “severe” and “extremely severe”; grade of skin lesion (erythema), Immediately after administration (sole of the rat paws; [5]): ++; grade of skin lesion (erythema), 1 hour after administration (sole of the rat paws; [6]): ++++; grade of skin lesion (erythema), 2 hours after administration (sole of the rat paws; [6]): ++++; grade of skin lesion (erythema), Immediately after administration (sole of the rat paws; [6]): ++; Inflammation (H&E), BA % (w/v) 1.0 [1]: +++; bile acid/PPC molar ratio below which a substantially stable formulation did not occur [2]: less than 1.12; bile acid concentration at which stable injectable preparations can be made [2]: ≥ 2.7%

— patent publication US11298314B2, “Injectable composition for localized fat reduction without pain, edema, and side effects, and method for preparing same” (AMI PHARM CO., LTD., priority 2017, dated 2022)
